Structures are written as SMILES.

This assay addresses T1, COX-2 (Homo sapiens, UniProt P35354).
T1 construct: gene PTGS2
T1 sequence (P35354 18-604): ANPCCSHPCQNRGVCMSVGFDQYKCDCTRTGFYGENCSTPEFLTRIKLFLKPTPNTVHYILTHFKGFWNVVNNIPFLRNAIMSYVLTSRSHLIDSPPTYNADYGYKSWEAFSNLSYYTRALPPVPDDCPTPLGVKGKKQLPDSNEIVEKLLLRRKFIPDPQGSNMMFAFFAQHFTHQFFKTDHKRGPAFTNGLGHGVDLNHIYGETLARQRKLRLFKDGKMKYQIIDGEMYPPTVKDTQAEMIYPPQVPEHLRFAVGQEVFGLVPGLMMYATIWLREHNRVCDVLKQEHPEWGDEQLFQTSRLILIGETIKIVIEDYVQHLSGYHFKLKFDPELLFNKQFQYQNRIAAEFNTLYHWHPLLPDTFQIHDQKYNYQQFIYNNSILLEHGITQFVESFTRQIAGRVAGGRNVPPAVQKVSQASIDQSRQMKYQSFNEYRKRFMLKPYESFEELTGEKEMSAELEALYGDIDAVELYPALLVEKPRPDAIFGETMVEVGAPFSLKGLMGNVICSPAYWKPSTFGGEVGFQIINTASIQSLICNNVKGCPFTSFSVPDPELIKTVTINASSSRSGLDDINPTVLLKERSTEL
Briefly: recombinant human COX-2 inhibition, PGE2 measured by UPLC-MS/MS. Format: biochemical.

A word on the IC50: it is the concentration that gives 50% inhibition. For `Cc1ccc(-c2cc(CNC(=O)CCCCC[N+]3=C(/C=C/C=C/C=C4/N(C)c5ccccc5C4(C)C)C(C)(C)c4ccccc43)nn2-c2ccc(S(N)(=O)=O)cc2)cc1` [CCY-5], the IC50 amounted to 1570 nM.

Source of the values: publication PMC7570625, “Design and Synthesis of a Novel NIR Celecoxib-Based Fluorescent Probe for Cyclooxygenase-2 Targeted Bioimaging in Tumor Cells” (Molecules, 2020).
